Measurements from US20170190671A1, “BIS(ARYL)CATECHOL DERIVATIVES AS HERBICIDES” (E I DU PONT DE NEMOURS AND COMPANY, priority 2014, published 2017).

Experiments:
Experiment in all cases: Test E preemergence
Assay type in all cases: in vivo
Conditions in all cases: scale 0 to 100
[1] = test system: hairy beggarticks (Bidens pilosa)
Method in brief: (§1)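 Seeds were sown in silt loam soil and sprayed preemergence with test chemicals in a non-phytotoxic solvent mixture containing surfactant. For postemergence, plants at the 1- to 4-leaf stage (2 to 18 cm) in peat-based potting medium were treated. After 14 to 21 days in a greenhouse, injury was rated visually against controls, 0 (no effect) to 100 (complete control).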

[2] = test system: Italian ryegrass (Lolium multiflorum)
Method in brief: as §1

[3] = test system: nightshade (eastern black nightshade, Solanum ptycanthum)
Method in brief: as §1

[4] = test system: goosegrass (Eleusine indica)
Method in brief: as §1

kochia (Kochia scoparia) = test system: kochia (Kochia scoparia)
Method in brief: as §1

[5] = test system: Surinam grass (Brachiaria decumbens)
Method in brief: as §1

[6] = test system: large (Lg) crabgrass (Digitaria sanguinalis)
Method in brief: as §1

[7] = test system: giant foxtail (Setaria faberii)
Method in brief: as §1

[8] = test system: palmer pigweed (Amaranthus palmeri)
Method in brief: as §1

[9] = test system: barnyardgrass (Echinochloa crus-galli)
Method in brief: as §1

[10] = test system: green foxtail (Setaria viridis)
Method in brief: as §1

[11] = test system: ragweed (common ragweed, Ambrosia elatior)
Method in brief: as §1

[12] = test system: field bindweed (Convolvulus arvensis)
Method in brief: as §1

[13] = test system: morningglory (Ipomoea coccinea)
Method in brief: as §1

[14] = test system: fall panicum (Panicum dichotomiflorum)
Method in brief: as §1

[15] = test system: velvetleaf (Abutilon theophrasti)
Method in brief: as §1

[16] = test system: waterhemp (common waterhemp, Amaranthus rudis)
Method in brief: as §1

[17] = test system: lambsquarters (Chenopodium album)
Method in brief: as §1

[18] = test system: yellow nutsedge (Cyperus esculentus)
Method in brief: as §1

[19] = test system: dayflower (Virginia (VA) dayflower, Commelina virginica)
Method in brief: as §1

[20] = test system: Brazilian crabgrass (Digitaria horizontalis)
Method in brief: as §1

## Fc1ccc(F)c(Oc2ncc(Cl)cn2)c1Oc1ncc(Cl)cn1 [Compound 34, 2,2′-[(3,6-difluoro-1,2-phenylene)bis(oxy)]bis[5-chloropyrimidine]]
[1]; 16 g ai/ha
  Plant response rating, Beggarticks: 50
[1]; 31 g ai/ha
  Plant response rating, Beggarticks: 60
[1]; 62 g ai/ha
  Plant response rating, Beggarticks: 70
[1]; 125 g ai/ha
  Plant response rating, Beggarticks: 75
[2]; 16 g ai/ha
  Plant response rating, Ryegrass, Italian: 0
[2]; 31 g ai/ha
  Plant response rating, Ryegrass, Italian: 0
[2]; 62 g ai/ha
  Plant response rating, Ryegrass, Italian: 35
[2]; 125 g ai/ha
  Plant response rating, Ryegrass, Italian: 70
[3]; 16 g ai/ha
  Plant response rating, Nightshade: 50
[3]; 31 g ai/ha
  Plant response rating, Nightshade: 50
[3]; 62 g ai/ha
  Plant response rating, Nightshade: 80
[3]; 125 g ai/ha
  Plant response rating, Nightshade: 95
[4]; 16 g ai/ha
  Plant response rating, Goosegrass: 0
[4]; 31 g ai/ha
  Plant response rating, Goosegrass: 0
[4]; 62 g ai/ha
  Plant response rating, Goosegrass: 5
[4]; 125 g ai/ha
  Plant response rating, Goosegrass: 80
Kochia (Kochia scoparia); 16 g ai/ha
  Plant response rating, Kochia: 0
Kochia (Kochia scoparia); 31 g ai/ha
  Plant response rating, Kochia: 95
Kochia (Kochia scoparia); 62 g ai/ha
  Plant response rating, Kochia: 100
Kochia (Kochia scoparia); 125 g ai/ha
  Plant response rating, Kochia: 100
[5]; 16 g ai/ha
  Plant response rating, Surinam Grass: 0
[5]; 31 g ai/ha
  Plant response rating, Surinam Grass: 0
[5]; 125 g ai/ha
  Plant response rating, Surinam Grass: 10
[6]; 16 g ai/ha
  Plant response rating, Crabgrass, Large: 0
[6]; 31 g ai/ha
  Plant response rating, Crabgrass, Large: 25
[6]; 62 g ai/ha
  Plant response rating, Crabgrass, Large: 98
[6]; 125 g ai/ha
  Plant response rating, Crabgrass, Large: 98
[7]; 16 g ai/ha
  Plant response rating, Foxtail, Giant: 0
[7]; 31 g ai/ha
  Plant response rating, Foxtail, Giant: 50
[7]; 62 g ai/ha
  Plant response rating, Foxtail, Giant: 85
[7]; 125 g ai/ha
  Plant response rating, Foxtail, Giant: 80
[8]; 16 g ai/ha
  Plant response rating, Pigweed, Palmer: 0
[8]; 31 g ai/ha
  Plant response rating, Pigweed, Palmer: 50
[8]; 62 g ai/ha
  Plant response rating, Pigweed, Palmer: 70
[8]; 125 g ai/ha
  Plant response rating, Pigweed, Palmer: 100
[9]; 16 g ai/ha
  Plant response rating, Barnyardgrass: 0
[9]; 31 g ai/ha
  Plant response rating, Barnyardgrass: 0
[9]; 62 g ai/ha
  Plant response rating, Barnyardgrass: 20
[9]; 125 g ai/ha
  Plant response rating, Barnyardgrass: 60
[10]; 16 g ai/ha
  Plant response rating, Foxtail, Green: 0
[10]; 31 g ai/ha
  Plant response rating, Foxtail, Green: 10
[10]; 62 g ai/ha
  Plant response rating, Foxtail, Green: 65
[10]; 125 g ai/ha
  Plant response rating, Foxtail, Green: 70
[11]; 16 g ai/ha
  Plant response rating, Ragweed: 0
[11]; 31 g ai/ha
  Plant response rating, Ragweed: 0
[11]; 62 g ai/ha
  Plant response rating, Ragweed: 25
[11]; 125 g ai/ha
  Plant response rating, Ragweed: 35
[12]; 16 g ai/ha
  Plant response rating, Field Bindweed: 0
[12]; 31 g ai/ha
  Plant response rating, Field Bindweed: 0
[12]; 62 g ai/ha
  Plant response rating, Field Bindweed: 0
[12]; 125 g ai/ha
  Plant response rating, Field Bindweed: 0
[13]; 31 g ai/ha
  Plant response rating, Morningglory: 20
[13]; 62 g ai/ha
  Plant response rating, Morningglory: 50
[13]; 125 g ai/ha
  Plant response rating, Morningglory: 65
[14]; 16 g ai/ha
  Plant response rating, Panicum, Fall: 50
[14]; 31 g ai/ha
  Plant response rating, Panicum, Fall: 80
[14]; 62 g ai/ha
  Plant response rating, Panicum, Fall: 98
[14]; 125 g ai/ha
  Plant response rating, Panicum, Fall: 100
[15]; 16 g ai/ha
  Plant response rating, Velvetleaf: 30
[15]; 31 g ai/ha
  Plant response rating, Velvetleaf: 100
[15]; 62 g ai/ha
  Plant response rating, Velvetleaf: 100
[15]; 125 g ai/ha
  Plant response rating, Velvetleaf: 100
[16]; 16 g ai/ha
  Plant response rating, Waterhemp: 100
[16]; 31 g ai/ha
  Plant response rating, Waterhemp: 100
[16]; 62 g ai/ha
  Plant response rating, Waterhemp: 100
[16]; 125 g ai/ha
  Plant response rating, Waterhemp: 100
[17]; 16 g ai/ha
  Plant response rating, Lambsquarters: 0
[17]; 31 g ai/ha
  Plant response rating, Lambsquarters: 70
[17]; 62 g ai/ha
  Plant response rating, Lambsquarters: 90
[17]; 125 g ai/ha
  Plant response rating, Lambsquarters: 100
[18]; 16 g ai/ha
  Plant response rating, Nutsedge, Yellow: 0
[18]; 31 g ai/ha
  Plant response rating, Nutsedge, Yellow: 0
[18]; 62 g ai/ha
  Plant response rating, Nutsedge, Yellow: 0
[18]; 125 g ai/ha
  Plant response rating, Nutsedge, Yellow: 0
[19]; 16 g ai/ha
  Plant response rating, Dayflower, VA: 0
[19]; 31 g ai/ha
  Plant response rating, Dayflower, VA: 30
[19]; 62 g ai/ha
  Plant response rating, Dayflower, VA: 20
[19]; 125 g ai/ha
  Plant response rating, Dayflower, VA: 90
[20]; 16 g ai/ha
  Plant response rating, Crabgrass, Brazil: 0
[20]; 31 g ai/ha
  Plant response rating, Crabgrass, Brazil: 35
[20]; 62 g ai/ha
  Plant response rating, Crabgrass, Brazil: 95
[20]; 125 g ai/ha
  Plant response rating, Crabgrass, Brazil: 98
